Laboratory results: US8883782B2, “Spiro-tetracyclic ring compounds as beta-secretase modulators and methods of use” (Amgen Inc., priority 2010, dated 2014)
Like-named read-outs stand apart in the source and are kept apart here.

Key:
[1] = system: Aβ40 in conditioned medium of cells stably expressing Amyloid Precursor Protein (APP); experiment: In vitro BACE cell-based assay (Aβ40 in conditioned medium, sandwich ELISA); settings: read-out: HEK cell assay
Method in brief: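 The sandwich ELISA pairs pAb40 capture (3 h, 4 °C) with 6E10 detection (2 h, 4 °C) and a streptavidin-europium TRF read-out. Supernatants come from APP-expressing cells grown in 10% FBS DMEM.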

[2] = biological target: Beta Secretase enzyme (BACE) (Homo sapiens, UniProt P56817); experiment: In vitro enzymatic BACE FRET (fluorescence resonance energy transfer) assay; assay type: biochemical; settings: average IC50, enzyme assay; read-out: BACE 1 FRET assay
Sequence of Beta Secretase enzyme (BACE) (P56817 46-501, species assumed): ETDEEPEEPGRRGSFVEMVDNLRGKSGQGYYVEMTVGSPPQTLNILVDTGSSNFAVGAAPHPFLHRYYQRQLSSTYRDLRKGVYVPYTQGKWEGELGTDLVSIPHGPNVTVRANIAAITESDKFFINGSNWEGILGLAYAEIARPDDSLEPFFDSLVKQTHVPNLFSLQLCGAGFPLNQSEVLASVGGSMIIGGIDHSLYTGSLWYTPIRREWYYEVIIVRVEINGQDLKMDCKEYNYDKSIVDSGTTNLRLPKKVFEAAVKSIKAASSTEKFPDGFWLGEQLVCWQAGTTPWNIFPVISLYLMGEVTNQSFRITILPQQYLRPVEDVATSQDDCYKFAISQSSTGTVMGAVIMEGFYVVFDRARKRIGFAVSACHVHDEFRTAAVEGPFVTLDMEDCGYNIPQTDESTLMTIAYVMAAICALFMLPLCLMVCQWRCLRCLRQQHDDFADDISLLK
Method in brief: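 Fluorescence read after Tris quench (pH raised to neutrality) of a one-hour BACE reaction. Buffer: acetate 0.05 M, pH 4.2, with 100 uM genapol and 10% DMSO final; started by adding 50 nM FRET peptide substrate spanning the cleavage site.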

[3] = Homo sapiens, HEK293, average IC50, HEK cells

| SMILES | IC50 [1, 3] | IC50 [2] | IC50 ([1]; average IC50, HEK cells) |
| --- | --- | --- | --- |
| CC1(COc2ccc3c(c2)[C@@]2(COC(N)=N2)c2cc(Br)cc(F)c2O3)COC1 [Example 437, (4S)-2′-bromo-4′-fluoro-7′-((3-methyl-3-oxetanyl)methoxy)spiro[1,3-oxazole-4,9′-xanthen]-2-amine] | 1920 nM | 202 nM |  |
| CC1(COc2ccc3c(c2)[C@@]2(COC(N)=N2)c2cc(C4=CCOCC4)cc(F)c2O3)COC1 [Example 438, (4S)-2′-(3,6-dihydro-2H-pyran-4-yl)-4′-fluoro-7′-((3-methyl-3-oxetanyl)methoxy)spiro[1,3-oxazole-4,9′-xanthen]-2-amine] | 34.6 nM | 9 nM |  |
| Cc1cc(-c2cc(F)c3c(c2)[C@]2(COC(N)=N2)c2cc(OCC4(C)COC4)ccc2O3)ccn1 [Example 439, (4S)-4′-fluoro-7′-((3-methyl-3-oxetanyl)methoxy)-2′-(2-methyl-4-pyridinyl)spiro[1,3-oxazole-4,9′-xanthen]-2-amine] | 156 nM | 186 nM |  |
| Cc1ccc(-c2cc(F)c3c(c2)[C@]2(COC(N)=N2)c2cc(OCC4(C)COC4)ccc2O3)cn1 [Example 440, (4S)-4′-fluoro-7′-((3-methyl-3-oxetanyl)methoxy)-2′-(6-methyl-3-pyridinyl)spiro[1,3-oxazole-4,9′-xanthen]-2-amine] | 16.9 nM | 11.7 nM |  |
| CC(C)(C#N)COc1ccc2c(c1)[C@@]1(COC(N)=N1)c1cc(C3=CCOCC3)cc(F)c1O2 [Example 441, 3-(((4S)-2-amino-7′-(3,6-dihydro-2H-pyran-4-yl)-5′-fluorospiro[1,3-oxazole-4,9′-xanthen]-2′-yl)oxy)-2,2-dimethylpropanenitrile] | 14.4 nM | 4 nM |  |
| CC(C)(C#N)COc1ccc2c(c1)[C@@]1(COC(N)=N1)c1cc(Br)cc(F)c1O2 [Example 442, 3-(((4S)-2-amino-7′-bromo-5′-fluorospiro[1,3-oxazole-4,9′-xanthen]-2′-yl)oxy)-2,2-dimethylpropanenitrile] | 1810 nM | 152 nM |  |
| Cn1cc(-c2cc(F)c3c(c2)[C@]2(COC(N)=N2)c2cc(OCC4(C)COC4)ccc2O3)cn1 [Example 444, (4S)-4′-fluoro-7′-((3-methyl-3-oxetanyl)methoxy)-2′-(1-methyl-1H-pyrazol-4-yl)spiro[1,3-oxazole-4,9′-xanthen]-2-amine] | 38.6 nM | 20 nM |  |
| Cc1cc(-c2cc(F)c3c(c2)[C@]2(COC(N)=N2)c2cc(OCC4(C)COC4)ccc2O3)cnc1F [Example 445, (4S)-4′-fluoro-2′-(6-fluoro-5-methyl-3-pyridinyl)-7′-((3-methyl-3-oxetanyl)methoxy)spiro[1,3-oxazole-4,9′-xanthen]-2-amine] | 188 nM | 41.6 nM |  |
| CC1(C)C[C@@H](c2cc(F)c3c(c2)[C@]2(COC(N)=N2)c2cc(-c4cnccn4)ccc2O3)CCO1 [Example 449, (4S)-2′-((4S)-2,2-dimethyltetrahydro-2H-pyran-4-yl)-4′-fluoro-7′-(2-pyrazinyl)spiro[1,3-oxazole-4,9′-xanthen]-2-amine] | 20 nM | 3.7 nM |  |
| CC1(C)C[C@H](c2cnc3c(c2)[C@]2(COC(N)=N2)c2cc(-c4cccnc4F)ccc2O3)CCO1 [Example 453, (5S)-3-((4R)-2,2-dimethyltetrahydro-2H-pyran-4-yl)-7-(2-fluoro-3-pyridinyl)spiro[chromeno[2,3-b]pyridine-5,4′-[1,3]oxazol]-2′-amine] | 12.2 nM | 2.4 nM |  |
| CC1(C#Cc2ccc3c(c2)[C@@]2(COC(N)=N2)c2cc(C4=CCOCC4)cnc2O3)COC1 [Example 462, (5S)-3-(3,6-dihydro-2H-pyran-4-yl)-7-((3-methyl-3-oxetanyl)ethynyl)spiro[chromeno[2,3-b]pyridine-5,4′-[1,3]oxazol]-2′-amine] | 18.9 nM | 5.9 nM |  |
| CC(C)(C)C#Cc1ccc2c(c1)[C@@]1(COC(N)=N1)c1cc(N3CCOCC3)cnc1O2 [Example 464, (5S)-7-(3,3-dimethyl-1-butyn-1-yl)-3-(4-morpholinyl)spiro[chromeno[2,3-b]pyridine-5,4′-[1,3]oxazol]-2′-amine] | 69 nM | 12.8 nM |  |
| Cc1cc(-c2ccc3c(c2)[C@@]2(COC(N)=N2)c2cc(C4=CCOCC4)cnc2O3)cnc1F [Example 467, (5S)-3-(3,6-dihydro-2H-pyran-4-yl)-7-(6-fluoro-5-methyl-3-pyridinyl)spiro[chromeno[2,3-b]pyridine-5,4′-[1,3]oxazol]-2′-amine] | 50.8 nM | 20.8 nM |  |
| Cc1cc(-c2ccc3c(c2)[C@@]2(COC(N)=N2)c2cc(C#CC4(C)COC4)cnc2O3)cnc1F [Example 468, (5S)-7-(6-fluoro-5-methyl-3-pyridinyl)-3-((3-methyl-3-oxetanyl)ethynyl)spiro[chromeno[2,3-b]pyridine-5,4′-[1,3]oxazol]-2′-amine] | 28.7 nM | 7.4 nM |  |
| CC1(C)C[C@H](c2cnc3c(c2)[C@]2(COC(N)=N2)c2cc(-c4cccnc4F)ccc2O3)CCO1 [Example 469, (5S)-3-((4R)-2,2-dimethyltetrahydro-2H-pyran-4-yl)-7-(2-fluoro-3-pyridinyl)spiro[chromeno[2,3-b]pyridine-5,4′-[1,3]oxazol]-2′-amine] |  | 2.8 nM | 13.9 nM |

The remaining lines, values ahead:

| IC50 [1, 3] | IC50 [2] | IC50 ([1]; average IC50, HEK cells) | SMILES |
| --- | --- | --- | --- |
| 5.4 nM | 1.9 nM |  | Cc1cncc(-c2ccc3c(c2)[C@@]2(COC(N)=N2)c2cc(C4=CCOCC4)cc(F)c2O3)c1 [Example 446, (4S)-2′-(3,6-dihydro-2H-pyran-4-yl)-4′-fluoro-7′-(5-methyl-3-pyridinyl)spiro[1,3-oxazole-4,9′-xanthen]-2-amine] |
| 5.1 nM | 1.1 nM |  | NC1=N[C@@]2(CO1)c1cc(-c3cncc(F)c3)ccc1Oc1c(F)cc(C3=CCOCC3)cc12 [Example 447, (4S)-2′-(3,6-dihydro-2H-pyran-4-yl)-4′-fluoro-7′-(5-fluoro-3-pyridinyl)spiro[1,3-oxazole-4,9′-xanthen]-2-amine] |
| 7.7 nM | 2.4 nM |  | NC1=N[C@@]2(CO1)c1cc(-c3cncc(F)c3)ccc1Oc1c(F)cc(C3CCOCC3)cc12 [Example 448, (4S)-4′-fluoro-7′-(5-fluoro-3-pyridinyl)-2′-(tetrahydro-2H-pyran-4-yl)spiro[1,3-oxazole-4,9′-xanthen]-2-amine] |
| 17.7 nM | 2.4 nM |  | CC1(C)C[C@H](c2cc(F)c3c(c2)[C@]2(COC(N)=N2)c2cc(-c4cnccn4)ccc2O3)CCO1 [Example 450, (4S)-2′-((4R)-2,2-dimethyltetrahydro-2H-pyran-4-yl)-4′-fluoro-7′-(2-pyrazinyl)spiro[1,3-oxazole-4,9′-xanthen]-2-amine] |
| 10.3 nM | 0.5 nM |  | NC1=N[C@@]2(CO1)c1cc(-c3cccnc3F)ccc1Oc1c(F)cc(-c3ccnc(F)c3)cc12 [Example 451, (4S)-4′-fluoro-7′-(2-fluoro-3-pyridinyl)-2′-(2-fluoro-4-pyridinyl)spiro[1,3-oxazole-4,9′-xanthen]-2-amine] |
| 3.2 nM | 0.9 nM |  | NC1=N[C@@]2(CO1)c1cc(-c3cc(Cl)cnc3F)ccc1Oc1ncc(C3=CCOCC3)cc12 [Example 454, (5S)-7-(5-chloro-2-fluoro-3-pyridinyl)-3-(3,6-dihydro-2H-pyran-4-yl)spiro[chromeno[2,3-b]pyridine-5,4′-[1,3]oxazol]-2′-amine] |
| 2.2 nM | 0.6 nM |  | CC1(C#Cc2cnc3c(c2)[C@]2(COC(N)=N2)c2cc(-c4cc(Cl)cnc4F)ccc2O3)COC1 [Example 456, (5S)-7-(5-chloro-2-fluoro-3-pyridinyl)-3-((3-methyl-3-oxetanyl)ethynyl)spiro[chromeno[2,3-b]pyridine-5,4′-[1,3]oxazol]-2′-amine] |
| 6.6 nM | 1.5 nM |  | NC1=N[C@@]2(CO1)c1cc(-c3cncc(F)c3)ccc1Oc1ncc(C3=CCOCC3)cc12 [Example 457, (5S)-3-(3,6-dihydro-2H-pyran-4-yl)-7-(5-fluoro-3-pyridinyl)spiro[chromeno[2,3-b]pyridine-5,4′-[1,3]oxazol]-2′-amine] |
| 5.1 nM | 1.2 nM |  | CC1(C#Cc2cnc3c(c2)[C@]2(COC(N)=N2)c2cc(-c4cncc(F)c4)ccc2O3)COC1 [Example 458, (5S)-7-(5-fluoro-3-pyridinyl)-3-((3-methyl-3-oxetanyl)ethynyl)spiro[chromeno[2,3-b]pyridine-5,4′-[1,3]oxazol]-2′-amine] |
| 6.2 nM | 2.2 nM |  | COc1cncc(-c2ccc3c(c2)[C@@]2(COC(N)=N2)c2cc(C4=CCOCC4)cnc2O3)c1 [Example 459, (5S)-3-(3,6-dihydro-2H-pyran-4-yl)-7-(5-methoxy-3-pyridinyl)spiro[chromeno[2,3-b]pyridine-5,4′-[1,3]oxazol]-2′-amine] |
| 6.3 nM | 1.8 nM |  | COc1cncc(-c2ccc3c(c2)[C@@]2(COC(N)=N2)c2cc(C#CC4(C)COC4)cnc2O3)c1 [Example 461, (5S)-7-(5-methoxy-3-pyridinyl)-3-((3-methyl-3-oxetanyl)ethynyl)spiro[chromeno[2,3-b]pyridine-5,4′-[1,3]oxazol]-2′-amine] |
| 11.1 nM | 1.7 nM |  | CC1(C)C[C@@H](c2cnc3c(c2)[C@]2(COC(N)=N2)c2cc(-c4cccc(Cl)c4)ccc2O3)CCO1 [Example 465, (5S)-7-(3-chlorophenyl)-3-((4S)-2,2-dimethyltetrahydro-2H-pyran-4-yl)spiro[chromeno[2,3-b]pyridine-5,4′-[1,3]oxazol]-2′-amine] |
| 5.6 nM | 2.1 nM |  | CC1(C)C[C@@H](c2cnc3c(c2)[C@]2(COC(N)=N2)c2cc(-c4cncc(Cl)c4)ccc2O3)CCO1 [Example 466, (5S)-7-(5-chloro-3-pyridinyl)-3-((4S)-2,2-dimethyltetrahydro-2H-pyran-4-yl)spiro[chromeno[2,3-b]pyridine-5,4′-[1,3]oxazol]-2′-amine] |
